In patent publication EP4644377A1, “LIPID COMPOUND FOR GENE DELIVERY AND LIPID NANOPARTICLE COMPRISING SAME” (NANJING CYBERNAX BIOMEDICAL TECHNOLOGY CO., LTD., priority 2022, dated 2024):

Experiments:
[1] = Particle size detection of LNP (Brookhaven NanoBrook Omni, DLS); assay type: physicochemical
Description: Step 1. Preparation of a lipid solution and a nucleic acid solution: unless otherwise specified, all aqueous solutions involved in examples were prepared from deionized water without nucleases. An ionizable lipid, a phospholipid (disaturated phosphatidylcholine (DSPC) or dioleoylphosphatidylethanolamine (DOPE)), cholesterol and a PEG lipid (DMG-PEG2000) were mixed in a molar ratio of 50/10/38.5/1.5 (containing DSPC, formulation 1) or 36.5/16/46.5/2.5 (containing DOPE, formulation 2) and dissolved into an ethanol solution. Meanwhile, a nucleic acid (a mass ratio of ionizable lipid/nucleic acid was 10/1) was dissolved into a citrate buffer solution of pH=3, so that a final volume ratio of the ethanol solution to the citrate solution was 1/3.
Step 2. Preparation of LNP by mixing the lipid solution with the nucleic acid solution: the lipid ethanol solution and the nucleic acid aqueous solution that were prepared in Step 1 were respectively put into a sterile syringe and placed in a Precision Nanosystem Ignite instrument, the extrusion flow speeds of the ethanol solution and the water phase solution were respectively set as 3 ml/min and 9 ml/min in instrument program settings. A microfluidic chip was inserted into the instrument and LNP preparation was initiated, and then a solution mixed by the chip was collected.
Step 2.1. Preparation of an LNP solution coating nucleic acid in a porous plate: a solution of an ionizable lipid, a phospholipid (DSPC or DOPE), cholesterol and a PEG lipid (DMG-PEG2000) in ethanol was added into each well of a 96-well deep plate, so that a molar ratio of four component lipids in each well was 50/10/38.5/1.5 (containing DSPC, formulation 1) or 36.5/16/46.5/2.5 (containing DOPE, formulation 2). Then, a citrate buffer solution (pH=3, the mass of nucleic acid added into each well was 1/10 that of the ionizable lipid in this well) that was three times as ethanol in volume and dissolved with a nucleic acid molecule was quickly added into the well plate through a multi-channel pipette or an automatic liquid dispensing system and rapidly mixed, so as to obtain the LNP solution coating nucleic acid.
Step 3. Purification of the LNP solution: the LNP solution collected in Step 2 or Step 2.1 was subjected to dialysis-concentration-filtration operations, so as to obtain a final LNP solution coating nucleic acid for subsequent testing.
The LNP solution coating nucleic acid obtained in Step 3 was diluted so that the final lipid concentration was between 0.01 mg/ml and 0.1 mg/ml. The diluted solution was added into a sample reservoir, and then subjected to particle size detection in a Brookhaven NanoBrook Omni instrument.

C57Bl/6 mice = assay: Luciferase mRNA delivery in mice, IVIS chemiluminescence; assay type: in vivo
Description: The animal experiments were reviewed and approved by the Ethics Committee of Zhejiang Medical College and the Ethics Committee of Zhejiang University of Technology. 6- to 8-week-old male C57Bl/6 mice were randomly grouped with 3 mice in each group. The mice in each group received a lipid nanoparticle coating mRNA expressing a luciferase via tail vein injection at a dose of 0.25 mg/kg mouse body weight (calculated by the mass of coated mRNA). […] The mRNA delivery effect of the lipid nanoparticle is quantitatively compared through a total chemiluminiscence quantity (Total Flux p/s) of a mouse whole body within unit time (shown in Table 5).
Table 13 and Table 14 show whole body chemiluminescent signals when LNPs (formulation 2) composed of the lipids in some examples deliver Flue mRNA in mice. The delivery dose of Flue mRNA was 0.25 mg/kg. 6 h after LNP injection, 150 mg/kg of D-luciferin was intraperitoneally injected into the mice, and then the whole body chemiluminescent signals were collected in the IVIS imaging system after 10 min. […]

[2] = Determination of total nucleic acid and encapsulation efficiency (Quant-iT RiboGreen RNA kit); assay type: physicochemical; settings: LNP with RSV-mRNA, lipid ratio of formulation 1, N/P 6
Description: The content of nucleic acids in an LNP sample was determined through a Quant-iT™ RiboGreen® RNA detection kit (Thermofisher). The detection of total RNA concentration: 5 µl of to-be-detected sample was placed into 2 ml of ep tube, 245 µl of 1xTE Buffer was added, and the above materials were evenly mixed to obtain a "diluted sample". 100 µl of the above "diluted sample" was taken, 100 µl of 10% TritonX-100 solution was added, the above materials were sufficiently and evenly mixed, and then the obtained mixture was demulsified for 15 min in metal bath under the conditions of 37°C and 300 rpm; and 80 µl of 1xTE Buffer was added into an ELISA plate, 20 µl of demulsified sample was taken and added into the ELISA plate to be evenly mixed, and then 100 µl of fluorescence dye (2000-fold dilution) solution was added.
Detection of free RNA concentration: 90 µl of 1xTE Buffer was added into the ELISA plate, 10 µl of the above "diluted sample" was taken, and 100 µl of fluorescence dye (2000-fold dilution) solution was added.
Meanwhile, a series of standard solutions having different concentrations were set in the ELISA plate as quantitative standard curves. The samples were loaded onto the ELISA plate to detect fluorescence signals (with an excitation wavelength of 480 nm and an emission detection wavelength of 520). A corresponding RNA concentration was obtained after the fluorescence signal in each well was converted via the standard curve.
Calculation method of encapsulation efficiency: EE(%) = (Concentration of total mRNA−concentration of free mRNA)/(Concentration of total mRNA)∗100% [formula]

[3] = LNPs after coating mRNA (luciferase)
[4] = LNP formulation 2 (SM102: formulation 1), luciferase mRNA 0.25 mg/kg, tail vein, C57Bl/6 mice, whole body signal 6 h after LNP, 10 min after D-luciferin 150 mg/kg i.p.
[5] = LNPs (formulation 2), Flue mRNA 0.25 mg/kg, tail vein injection, whole body signal 6 h after LNP injection, 10 min after 150 mg/kg D-luciferin i.p.

| Compound | PDI [1, 3] | Particle size [1, 3] [nm·days] | Chemiluminescent signal (p/s) (C57Bl/6 mice; [4]) | Chemiluminescent signal (p/s) (C57Bl/6 mice; [5]) | Particle size ([1]; LNP with RSV-mRNA, lipid ratio of formulation 1, N/P 6) [nm] | encapsulation efficiency [2] [%] |
| --- | --- | --- | --- | --- | --- | --- |
| CCCCCCCC/C=C\CCCCCCCCOC(=O)CCC(=O)N(CCCN(CC)CC)C(C(=O)NCCCC(=O)OCCCCCCCC)C(C)(C)C (stereo not drawn) [Lipid 226] | 0.19 | 207.34 ± 2.23 | 9.30E+09 |  |  |  |
| CCCCCCCCCCCCCC(=O)N(CCCN(C)CCO)C(C(=O)NCCCCCCCCCCCC)C(C)(C)C (stereo not drawn) [Lipid 189] | 0.19 | 188.99 ± 4.55 | 3.32E+08 |  |  |  |
| CC/C=C\C/C=C\C/C=C\C/C=C\C/C=C\CCCC(=O)N(CCCN(CC)CC)C(C(=O)NCCCCCCCCCCCCCC)C(C)(C)C (stereo not drawn) [Lipid 162] | 0.27 | 261.64 ± 5.92 | 6.66E+09 |  |  |  |
| CCCCCCCCC(CC)OC(=O)CCCCCCC(=O)N(CCCN(C)C)C(C(=O)NCCCCCCOC(=O)C(CCCCCC)CCCCCCCC)C(C)(C)C (stereo not drawn) [Lipid 406] | 0.17 | 95.9 ± 0.75 |  | 1.04E+11 |  |  |
| CCCCC/C=C\C/C=C\CCCCCCCC(=O)N(CCCN(CC)CC)C(C(=O)NCCCCCCCCCCCCCC)C(C)(C)C (stereo not drawn) [Lipid 160] | 0.23 | 201.12 ± 47.7 | 1.07E+10 |  |  |  |
| CCCCCCCC/C=C\CCCCCCCCOC(=O)CCC(=O)N(CCCN(C)C)C(C(=O)NCCCC(=O)OCCCCCCCC)C(C)(C)C (stereo not drawn) [Lipid 223] | 0.19 | 190.71 ± 1.15 | 1.26E+10 |  |  |  |
| CCCCC/C=C\C/C=C\CCCCCCCC(=O)N(CCCN(C)C)C(C)C(=O)NCCCCCCCC(=O)OC(CCCCCCCC)CCCCCCCC (stereo not drawn) [Lipid 949] | 0.19 | 115.8 ± 0.26 |  | 6.88E+05 |  |  |
| CCCCCCCCCCCC(=O)N(CCCN(CC)CC)C(C(=O)NCCCCCCCC(=O)OC(CCCCCCCC)CCCCCCCC)C(C)(C)C (stereo not drawn) [Lipid 237] | 0.14 | 234.57 ± 1.84 | 3.86E+09 |  |  |  |
| CCCCCCCCC(CCCCCCCC)OC(=O)CCCCCCCNC(=O)C(N(CCCN(C)C)C(=O)CCCCCCC(=O)OCC(C)CCCCCCC)C(C)(C)C (stereo not drawn) [Lipid 420] | 0.22 | 110.3 ± 1.65 |  | 6.69E+09 |  |  |
| CCCCCCCC/C=C\CCCCCCCCNC(=O)C(N(CCCN(C)C)C(=O)CCCCCCC/C=C\C[C@H](O)CCCCCC)C(C)(C)C (stereo partly drawn) [Lipid 16] | 0.26 | 128.73 ± 1.97 | 6.94E+09 |  |  |  |
| CCCCCCCCC(CCCCCC)COC(=O)CCCCCCC(=O)N(CCCN(C)C)C(C(=O)NCCCCCCCC(=O)OC(CC)CCCCCCCC)C(C)(C)C (stereo not drawn) [Lipid 431] | 0.26 | 114 ± 2.51 |  | 5.11E+10 |  |  |
| CCCCCCCC(C)COC(=O)CCCCCCCNC(=O)C(N(CCCN(C)C)C(=O)CCCCCCCCCC(=O)OC(CCCCCC)CCCCCC)C(C)(C)C (stereo not drawn) [Lipid 409] | 0.25 | 95 ± 0.75 |  | 3.08E+10 |  |  |
| CCCCC/C=C\C/C=C\CCCCCCCC(=O)N(CCCN(C)C)C(C(=O)NCCCCCCCC(=O)OC(CCCCCCCC)CCCCCCCC)C(C)C (stereo not drawn) [Lipid 942] | 0.25 | 135.8 ± 2.13 |  | 8.15E+08 |  |  |
| CCCCCCCCCCCC(=O)N(CCCN(C)CCCCO)C(C(=O)NCCCCCCCC(=O)OC(CCCCCCCC)CCCCCCCC)C(C)(C)C (stereo not drawn) [Lipid 240] | 0.19 | 204.35 ± 3.72 | 5.76E+08 |  |  |  |
| CCCCCCCCCCCCCCNC(=O)C(N(CCCN(CC)CC)C(=O)CCCCCCCCCCCCC)C(C)(C)C (stereo not drawn) [Lipid 159] | 0.22 | 136.93 ± 2.95 | 2.30E+09 |  |  |  |
| CCCCCCCCC(CCCCCC)C(=O)OCCCCCCC(=O)N(CCCN(C)C)C(C(=O)NCCCCCCCC(=O)OCC(C)CCCCCCC)C(C)(C)C (stereo not drawn) [Lipid 445] | 0.24 | 94.7 ± 0.95 |  | 2.15E+09 |  |  |
| CCCCCCCCC(CCCCCCCC)OC(=O)CCCCCCCNC(=O)C(N(CCCN(C)C)C(=O)CCCCCCCCCC(=O)OC(CCCCCC)CCCCCC)C(C)(C)C (stereo not drawn) [Lipid 408] | 0.18 | 101.7 ± 5.09 |  | 1.03E+11 |  |  |
| CCCCCCCCCCCC(=O)N(CCCN(C)C)C(C(=O)NCCCCCCCC(=O)OC(CCCCCCCC)CCCCCCCC)C(C)(C)C (stereo not drawn) [Lipid 234] | 0.17 | 240.23 ± 1.39 | 1.16E+10 |  |  |  |
| CCCCCCCCCCCOC(=O)CCCCCN(CCO)CCCCCCCC(=O)OC(CCCCCCCC)CCCCCCCC [SM102, heptadec-9-yl-8-((2-hydroxyethyl) (6-oxo-6-((undecyloxy)hexyl)amino) octanoate, reference compound] |  |  | 3.93E+09 |  | 96.1 | 97.9 |
| CCCCCCCCC(CC)OC(=O)CCCCCCCNC(=O)C(N(CCCN(C)C)C(=O)CCCCCCCCCC(=O)OC(CCCCCC)CCCCCC)C(C)(C)C (stereo not drawn) [Lipid 407] | 0.18 | 97.4 ± 0.64 |  | 8.00E+10 |  |  |
